pEC50: −log10 of the molar value. Structures can show the parent of a compound that is named as a salt. Where two headings read alike, the source gives them in different places.
Columns and labels:
[1] = tested on: A/Lyon/969/09 (H1N1)pdm09 virus; assay: microbe, parasite or virus in culture; assay type: cell-based, influenza A(H1N1)pdm09 virus
A/Texas/126/2016 (H3N2) = assay: Antiviral efficacy in A549 cells, H3N2 strain; assay type: cell-based, influenza virus
[2] = tested on: influenza A/Quebec/144147/09 (H1N1)pdm09 virus; assay type: in vivo, C57BL/6N mice; settings: […]; for Survival: mg/kg/day: oseltamivir 10, monensin 10, diltiazem 90, etilefrine 3; for Weight loss: oseltamivir 10, monensin 10, diltiazem 90 mg/kg/day
A(H1N1)pdm09 virus = assay type: cell-based, influenza virus; settings: for Viral titer, Dilution #2: virus 10^5 TCID50/mL pre-incubated 1 h; for Viral titer, Dilution #2 / Viral titer, Dilution #1: diltiazem 9 µM, etilefrine 18 µM, oseltamivir 1 µM; for Viral titer, Dilution #1: virus 10^6 TCID50/mL pre-incubated 1 h; for Mean relative Viral production: virus pre-incubated 1 h, relative to PBS control
[3] = tested on: influenza A/Quebec/144147/09 (H1N1)pdm09 virus; assay type: in vivo, C57BL/6N mice; settings: for Clinical benefit in terms of survival vs saline (placebo) group: mg/kg/day: oseltamivir 10, monensin 10, diltiazem 90, etilefrine 3, lanatoside C 100, prednisolone 5, flucytosine 240, felbinac 5, timolol 50; for Weight loss vs saline (placebo) group: oseltamivir 10, diltiazem 90, etilefrine 3 mg/kg/day
B/Massachusetts/2/2106 = assay: Antiviral efficacy in A549 cells, B strain; assay type: cell-based, influenza virus
[4] = tested on: A/Lyon/969/09 (H1N1)pdm09 virus; assay: microbe, parasite or virus in culture; assay type: cell-based, influenza A(H1N1)pdm09 virus; settings: Influenza A virus, 6 h pre-treatment only, A549, Figure 2B
[5] = tested on: influenza A/Lyon/969/09 (H1N1)pdm09 virus; assay type: cell-based
[6] = tested on: MucilAir® human airway epithelium; assay type: cell-based
[7] = Influenza A virus, H1N1, 48 h, pre-treatment/treatment in vitro, A549, […], read-out: EC50
[8] = pre-treatment/treatment in vitro, A549, […], read-out: EC50
[9] = 24 h p.i., oseltamivir 0.1 µM, diltiazem 9 µM or both
[10] = 48 h p.i., oseltamivir 0.1 µM, diltiazem 9 µM or both
[11] = 96 h p.i., oseltamivir 0.1 µM, diltiazem 9 µM or both
[12] = oseltamivir 1 μM, diltiazem 90 μM

CCN(CC)CCOC(=O)C(c1ccccc1)c1ccccc1 [Adiphenine]
pEC50 [1, 7]: 8.20

N=C(N)NC(=O)c1nc(Cl)c(N)nc1N [Amiloride]
pEC50 [1, 7]: 9.39

O=c1cc(-c2ccc(O)cc2)oc2cc(O)cc(O)c12 [Apigenin]
pEC50 [1, 7]: 9.68

CC1(C)S[C@@H]2[C@H](NC(=O)Cc3ccccc3)C(=O)N2[C@H]1C(=O)O [Benzathin Benzylpenicilline, Benzathine benzylpenicillin]
pEC50 [1, 8]: 9.59

OC(CCN1CCCCC1)(c1ccccc1)C1CC2C=CC1C2 (centres unmarked) [Biperiden]
pEC50 [1, 7]: 9.42

O=NN(CCCl)C(=O)NCCCl [Carmustine]
pEC50 [1, 7]: 10.15

CN(C)CCN(Cc1ccc(Cl)cc1)c1ccccn1 [Choropyramine, Chloropyramine]
pEC50 [1, 7]: 10.15

CCCCCCC[N+](CC)(CC)CCCCc1ccc(Cl)cc1 [Clofilium tosylate]
pEC50 [1, 8]: 9.80

CCNCC(O)c1cccc(O)c1 (centres unmarked) [Etilefrine]
Relative Viral production (A/Texas/126/2016 (H3N2); dose CMAP): 1 % of mock-treated | Viral titer (A/Texas/126/2016 (H3N2); dose CMAP): 3.63 log TCID50/ml | Relative Viral production (A/Texas/126/2016 (H3N2); dose CMAP/10): 14.7 % of mock-treated | Viral titer (A/Texas/126/2016 (H3N2); dose CMAP/10): 4.8 log TCID50/ml | Survival [2]: 50% | Effect of virus pre-incubation on final viral titers vs PBS-incubated controls (A(H1N1)pdm09 virus; pre-incubation before infection): did not affect final viral titers | Viral titer, Dilution #2 (A(H1N1)pdm09 virus): 4.63 log TCID50/ml | Viral titer, Dilution #1 (A(H1N1)pdm09 virus): 5.30 log TCID50/ml | Mean relative Viral production (A(H1N1)pdm09 virus): 100.0 % of mock-treated | Clinical benefit in terms of survival vs saline (placebo) group [3]: significantly improved survival | Weight loss vs saline (placebo) group [3]: significantly improved | Reduction in lung viral titers (LVTs) on day 5 p.i. ([3]; mouse, in vivo): at least 1 log | pEC50 [1, 7]: 9.47 | Relative Viral production (B/Massachusetts/2/2106; dose CMAP): 7.3 % of mock-treated | Viral titer (B/Massachusetts/2/2106; dose CMAP): 3.97 log TCID50/ml | Relative Viral production (B/Massachusetts/2/2106; dose CMAP/10): 15.0 % of mock-treated | Viral titer (B/Massachusetts/2/2106; dose CMAP/10): 4.3 log TCID50/ml

O=C(O)Cc1ccc(-c2ccccc2)cc1 [Felbinac]
Clinical benefit in terms of survival vs saline (placebo) group [3]: no clinical benefit | pEC50 [1, 7]: 7.46

Nc1[nH]c(=O)ncc1F [Flucytosine]
Clinical benefit in terms of survival vs saline (placebo) group [3]: no clinical benefit | pEC50 [1, 7]: 8.69

Nc1nc(=O)c2nc(CNc3ccc(C(=O)N[C@@H](CCC(=O)O)C(=O)O)cc3)cnc2[nH]1 [Folic acid]
pEC50 [1, 7]: 9.66

CC(=O)O[C@H]1C[C@@]2(C)[C@@H](C[C@@H](O)[C@H]3[C@@]4(C)CC[C@@H](O)[C@@H](C)[C@@H]4CC[C@@]32C)/C1=C(\CCC=C(C)C)C(=O)O [Fusidic acid]
pEC50 [1, 7]: 10.42

O=c1c(-c2ccc(O)cc2)coc2cc(O)cc(O)c12 [Genistein]
pEC50 [1, 7]: 8.97

CNC(C)C1CCC(N)C(OC2C(N)CC(N)C(OC3OCC(C)(O)C(NC)C3O)C2O)O1 (centres unmarked) [Gentamycin, Gentamicin]
pEC50 [1, 7]: 10.41

CC(=O)O[C@H]1C[C@H](O[C@H]2[C@@H](O)C[C@H](O[C@H]3[C@@H](O)C[C@H](O[C@H]4CC[C@@]5(C)[C@H](CC[C@@H]6[C@@H]5C[C@@H](O)[C@]5(C)[C@@H](C7=CC(=O)OC7)CC[C@]65O)C4)O[C@@H]3C)O[C@@H]2C)O[C@H](C)[C@H]1O[C@@H]1O[C@H](CO)[C@@H](O)[C@H](O)[C@H]1O [Lanatoside C]
Clinical benefit in terms of survival vs saline (placebo) group [3]: no clinical benefit

CC[C@@]1([C@@H]2O[C@@H]([C@H]3O[C@@](O)(CO)[C@H](C)C[C@@H]3C)C[C@@H]2C)CC[C@H]([C@]2(C)CC[C@]3(C[C@H](O)[C@@H](C)[C@@H]([C@@H](C)[C@@H](OC)[C@H](C)C(=O)O)O3)O2)O1 [Monensin]
Survival [2]: completely prevented mortality | Weight loss [2]: reduced weight loss | Clinical benefit in terms of survival vs saline (placebo) group [3]: clinical improvement | pEC50 [1, 7]: 8.49 | pEC50 [4]: 6.96

CCOC(=O)C1=C[C@@H](OC(CC)CC)[C@H](NC(C)=O)[C@@H](N)C1 [Oseltamivir]
Survival [2]: completely prevented mortality | Mice rescued from death ([2]; oseltamivir 10 mg/kg/day, diltiazem 90 mg/kg/day): 40% | Weight loss [2]: reduced weight loss | Apical viral titer log TCID50/ml (CI95) [5, 9]: 6.02 (4.69 – 7.35) log TCID50/ml | Apical viral titer log TCID50/ml (CI95) [5, 10]: 8.61 (7.43 – 9.80) log TCID50/ml | Apical viral titer log TCID50/ml (CI95) ([5]; 72 h p.i., oseltamivir 0.1 µM, diltiazem 9 µM or both): 8.30 (7.73 – 8.87) log TCID50/ml | Apical viral titer log TCID50/ml (CI95) [5, 11]: 7.80 (6.56 – 9.04) log TCID50/ml | Apical viral titer log TCID50/ml (CI95) ([5]; 96 h p.i., oseltamivir 1 µM, diltiazem 90 µM or both): 7.09 (5.79 – 8.40) log TCID50/ml | Effect on viral replication vs untreated control ([5]; oseltamivir 0.1 μM, diltiazem 9 μM (CMAP) or both, from 5 h p.i., once daily 5 days): no significant advantage over the untreated control | Reduction in apical viral titers at 48 h p.i. compared to the untreated control [5, 12]: > 3 log | Virus on the basolateral medium [5, 12]: No virus was detected | Delay of the peak of viral production ([5]; oseltamivir 1 μM, diltiazem 90 μM (10-fold CMAP)): 24 h | Reduction in apical peak viral titers compared to the untreated control ([5]; oseltamivir 1 μM, diltiazem 90 μM or both, 48 h p.i. untreated vs. 72 h p.i. treated): > 2 log | Viral titer, Dilution #2 (A(H1N1)pdm09 virus): 4.30 log TCID50/ml | Viral titer, Dilution #1 (A(H1N1)pdm09 virus): 5.63 log TCID50/ml | Mean relative Viral production (A(H1N1)pdm09 virus): 130.3 % of mock-treated | Clinical benefit in terms of survival vs saline (placebo) group [3]: clinical improvement | Weight loss vs saline (placebo) group [3]: clinical improvement | Δ TEER (CI95) [6, 9]: 8.98 (-81.72 – 99.68) Ohm/cm^2 | Δ TEER (CI95) ([6]; 24 h p.i., oseltamivir 1 µM, diltiazem 90 µM or both): -24.32 (-58.00 – 9.36) Ohm/cm^2 | Δ TEER (CI95) [6, 10]: 20.09 (-39.75 – 79.94) Ohm/cm^2 | Δ TEER (CI95) ([6]; 48 h p.i., oseltamivir 1 µM, diltiazem 90 µM or both): 7.26 (-85.73 – 100.3) Ohm/cm^2 | Δ TEER (CI95) [6, 11]: -209.2 (-271.5 – -146.8) Ohm/cm^2 | TEER during the time-course of infection ([6]; oseltamivir 1 μM, diltiazem 90 μM or both): stabilized TEER

CC(C)NCC(O)COc1cccc2[nH]ccc12 (centres unmarked) [Pindolol]
pEC50 [1, 7]: 9.10

CNC(=C[N+](=O)[O-])NCCSCc1ccc(CN(C)C)o1 [Ranitidine]
pEC50 [1, 7]: 9.17 | pEC50 [4]: 5.96

NC(=O)c1ncn([C@@H]2O[C@H](CO)[C@@H](O)[C@H]2O)n1 [Ribavirin]
pEC50 ([1]; Influenza A virus, H1N1, A549, 48 h): 9.07

CC[C@H]1OC(=O)[C@H](C)[C@@H](O[C@H]2C[C@@](C)(OC)[C@@H](O)[C@H](C)O2)[C@H](C)[C@@H](O[C@@H]2O[C@H](C)C[C@H](N(C)C)[C@H]2O)[C@](C)(O)C[C@@H](C)/C(=N\OCOCCOC)[C@H](C)[C@@H](O)[C@]1(C)O [Roxythromycin, Roxithromycin]
pEC50 [1, 7]: 9.85

COc1cc(NS(=O)(=O)c2ccc(N)cc2)nc(OC)n1 [Sulfadimethoxine]
pEC50 [1, 7]: 9.16

COc1cc(NS(=O)(=O)c2ccc(N)cc2)ncn1 [Sulfamonomethoxine]
pEC50 [1, 7]: 9.55

CC(C)(C)NC[C@H](O)COc1nsnc1N1CCOCC1 [Timolol]
Clinical benefit in terms of survival vs saline (placebo) group [3]: no clinical benefit

c1ccc(CC2=NCCN2)cc1 [Tolazoline]
pEC50 [1, 7]: 9.03

C[C@H](CCC(=O)O)[C@H]1CC[C@H]2[C@@H]3[C@@H](O)C[C@@H]4C[C@H](O)CC[C@]4(C)[C@H]3CC[C@]12C [Urseodeoxycholic acid, Ursodeoxycholic acid]
pEC50 [1, 7]: 9.21

C[C@]12C=CC(=O)C=C1CC[C@@H]1[C@@H]2[C@@H](O)C[C@@]2(C)[C@H]1CC[C@]2(O)C(=O)CO [prednisolone]
Clinical benefit in terms of survival vs saline (placebo) group [3]: no clinical benefit
